# Measured values: PMC9401487 (Clinical Cancer Research, 2021)
# System: patients with advanced solid tumors
# Assay: Phase I safety and tolerability
# Assay type: in vivo, human
# [1] = Cohort 5 (N=8), 60 mg QD 7 days + carboplatin
# [2] = Cohort 6 (N=7), co-dosing 60 mg QD + carboplatin days 1–3
# [3] = Cohort 6: 60 mg QD days 1–3 + carboplatin AUC5 day 1, 7 patients
# [4] = Cohort 7 (N=6), co-dosing 40 mg QD + carboplatin days 1 and 2
compound,measurement,setting,value
C[C@@H]1COCCN1c1cc(C2([S@](C)(=N)=O)CC2)nc(-c2cc[nH]c3nccc2-3)n1 [ceralasertib],"TEAE Arthralgia, Grade 1–2",[1],"2 (25) patients, n (%)"
same,"TEAE Arthralgia, Grade ≥3",[1],"0 patients, n (%)"
same,"TEAE Aspartate aminotransferase increased, Grade 1–2",[1],"1 (13) patients, n (%)"
same,"TEAE Aspartate aminotransferase increased, Grade ≥3",[1],"1 (13) patients, n (%)"
same,"TEAE Constipation, Grade 1–2",[1],"1 (13) patients, n (%)"
same,"TEAE Constipation, Grade ≥3",[1],"0 patients, n (%)"
same,"TEAE Contusion, Grade 1–2",[1],"0 patients, n (%)"
same,"TEAE Contusion, Grade ≥3",[1],"0 patients, n (%)"
same,"TEAE Cough, Grade 1–2",[1],"0 patients, n (%)"
same,"TEAE Cough, Grade ≥3",[1],"0 patients, n (%)"
same,"TEAE Decreased appetite, Grade 1–2",[1],"2 (25) patients, n (%)"
same,"TEAE Decreased appetite, Grade ≥3",[1],"0 patients, n (%)"
same,"TEAE Diarrhea, Grade 1–2",[1],"1 (13) patients, n (%)"
same,"TEAE Diarrhea, Grade ≥3",[1],"0 patients, n (%)"
same,"TEAE Dizziness, Grade 1–2",[1],"2 (25) patients, n (%)"
same,"TEAE Dizziness, Grade ≥3",[1],"0 patients, n (%)"
same,"TEAE Dyspnea, Grade 1–2",[1],"0 patients, n (%)"
same,"TEAE Dyspnea, Grade ≥3",[1],"0 patients, n (%)"
same,"TEAE Fatigue, Grade 1–2",[1],"3 (38) patients, n (%)"
same,"TEAE Fatigue, Grade ≥3",[1],"0 patients, n (%)"
same,"TEAE Hypocalcemia, Grade 1–2",[1],"2 (25) patients, n (%)"
same,"TEAE Hypocalcemia, Grade ≥3",[1],"0 patients, n (%)"
same,"TEAE Insomnia, Grade 1–2",[1],"0 patients, n (%)"
same,"TEAE Insomnia, Grade ≥3",[1],"0 patients, n (%)"
same,"TEAE Lower respiratory tract infection, Grade 1–2",[1],"1 (13) patients, n (%)"
same,"TEAE Lower respiratory tract infection, Grade ≥3",[1],"1 (13) patients, n (%)"
same,"TEAE Nausea, Grade 1–2",[1],"4 (50) patients, n (%)"
same,"TEAE Nausea, Grade ≥3",[1],"0 patients, n (%)"
same,"TEAE Neutropenia, Grade 1–2",[1],"0 patients, n (%)"
same,"TEAE Neutropenia, Grade ≥3",[1],"0 patients, n (%)"
same,"TEAE Neutrophil count decreased, Grade 1–2",[1],"0 patients, n (%)"
same,"TEAE Neutrophil count decreased, Grade ≥3",[1],"1 (13) patients, n (%)"
same,"TEAE Platelet count decreased, Grade 1–2",[1],"1 (13) patients, n (%)"
same,"TEAE Platelet count decreased, Grade ≥3",[1],"0 patients, n (%)"
same,"TEAE Pyrexia, Grade 1–2",[1],"2 (25) patients, n (%)"
same,"TEAE Pyrexia, Grade ≥3",[1],"0 patients, n (%)"
same,"TEAE Thrombocytopenia, Grade 1–2",[1],"4 (50) patients, n (%)"
same,"TEAE Thrombocytopenia, Grade ≥3",[1],"2 (25) patients, n (%)"
same,"TEAE Upper respiratory tract infection, Grade 1–2",[1],"0 patients, n (%)"
same,"TEAE Upper respiratory tract infection, Grade ≥3",[1],"0 patients, n (%)"
same,"TEAE Vomiting, Grade 1–2",[1],"0 patients, n (%)"
same,"TEAE Vomiting, Grade ≥3",[1],"0 patients, n (%)"
same,"TEAE White blood cell count decreased, Grade 1–2",[1],"0 patients, n (%)"
same,"TEAE White blood cell count decreased, Grade ≥3",[1],"1 (13) patients, n (%)"
same,"TEAE Abdominal pain, Grade 1–2",[2],"1 (14) patients, n (%)"
same,"TEAE Abdominal pain, Grade ≥3",[2],"0 patients, n (%)"
same,"TEAE Alanine aminotransferase increased, Grade 1–2",[2],"0 patients, n (%)"
same,"TEAE Alanine aminotransferase increased, Grade ≥3",[2],"0 patients, n (%)"
same,"TEAE Anemia, Grade 1–2",[2],"2 (29) patients, n (%)"
same,"TEAE Anemia, Grade ≥3",[2],"4 (57) patients, n (%)"
same,"TEAE Any AE, Grade 1–2",[2],"0 patients, n (%)"
same,"TEAE Any AE, Grade ≥3",[2],"7 (100) patients, n (%)"
same,"TEAE Arthralgia, Grade 1–2",[2],"0 patients, n (%)"
same,"TEAE Arthralgia, Grade ≥3",[2],"0 patients, n (%)"
same,"TEAE Aspartate aminotransferase increased, Grade 1–2",[2],"0 patients, n (%)"
same,"TEAE Aspartate aminotransferase increased, Grade ≥3",[2],"0 patients, n (%)"
same,"TEAE Constipation, Grade 1–2",[2],"1 (14) patients, n (%)"
same,"TEAE Constipation, Grade ≥3",[2],"0 patients, n (%)"
same,"TEAE Contusion, Grade 1–2",[2],"0 patients, n (%)"
same,"TEAE Contusion, Grade ≥3",[2],"0 patients, n (%)"
same,"TEAE Cough, Grade 1–2",[2],"0 patients, n (%)"
same,"TEAE Cough, Grade ≥3",[2],"0 patients, n (%)"
same,"TEAE Decreased appetite, Grade 1–2",[2],"0 patients, n (%)"
same,"TEAE Decreased appetite, Grade ≥3",[2],"0 patients, n (%)"
same,"TEAE Diarrhea, Grade 1–2",[2],"1 (14) patients, n (%)"
same,"TEAE Diarrhea, Grade ≥3",[2],"0 patients, n (%)"
same,"TEAE Dizziness, Grade 1–2",[2],"1 (14) patients, n (%)"
same,"TEAE Dizziness, Grade ≥3",[2],"0 patients, n (%)"
same,"TEAE Dyspnea, Grade 1–2",[2],"1 (14) patients, n (%)"
same,"TEAE Dyspnea, Grade ≥3",[2],"0 patients, n (%)"
same,"TEAE Fatigue, Grade 1–2",[2],"1 (14) patients, n (%)"
same,"TEAE Fatigue, Grade ≥3",[2],"0 patients, n (%)"
same,"TEAE Hypocalcemia, Grade 1–2",[2],"1 (14) patients, n (%)"
same,"TEAE Hypocalcemia, Grade ≥3",[2],"0 patients, n (%)"
same,"TEAE Insomnia, Grade 1–2",[2],"2 (29) patients, n (%)"
same,"TEAE Insomnia, Grade ≥3",[2],"0 patients, n (%)"
same,"TEAE Lower respiratory tract infection, Grade 1–2",[2],"1 (14) patients, n (%)"
same,"TEAE Lower respiratory tract infection, Grade ≥3",[2],"0 patients, n (%)"
same,"TEAE Nausea, Grade 1–2",[2],"6 (86) patients, n (%)"
same,"TEAE Nausea, Grade ≥3",[2],"1 (14) patients, n (%)"
same,"TEAE Neutropenia, Grade 1–2",[2],"1 (14) patients, n (%)"
same,"TEAE Neutropenia, Grade ≥3",[2],"5 (71) patients, n (%)"
same,"TEAE Neutrophil count decreased, Grade 1–2",[2],"0 patients, n (%)"
same,"TEAE Neutrophil count decreased, Grade ≥3",[2],"1 (14) patients, n (%)"
same,"TEAE Platelet count decreased, Grade 1–2",[2],"0 patients, n (%)"
same,"TEAE Platelet count decreased, Grade ≥3",[2],"0 patients, n (%)"
same,"TEAE Pyrexia, Grade 1–2",[2],"1 (14) patients, n (%)"
same,"TEAE Pyrexia, Grade ≥3",[2],"0 patients, n (%)"
same,"TEAE Thrombocytopenia, Grade 1–2",[2],"2 (29) patients, n (%)"
same,"TEAE Thrombocytopenia, Grade ≥3",[2],"4 (57) patients, n (%)"
same,"TEAE Upper respiratory tract infection, Grade 1–2",[2],"0 patients, n (%)"
same,"TEAE Upper respiratory tract infection, Grade ≥3",[2],"0 patients, n (%)"
same,"TEAE Vomiting, Grade 1–2",[2],"4 (57) patients, n (%)"
same,"TEAE Vomiting, Grade ≥3",[2],"1 (14) patients, n (%)"
same,"TEAE White blood cell count decreased, Grade 1–2",[2],"0 patients, n (%)"
same,"TEAE White blood cell count decreased, Grade ≥3",[2],"2 (29) patients, n (%)"
same,Number of DLTs,[3],no DLTs
same,SRC decision (tolerability),[3],not tolerated beyond cycle 1
same,"TEAE Abdominal pain, Grade 1–2",[4],"2 (33) patients, n (%)"
same,"TEAE Abdominal pain, Grade ≥3",[4],"0 patients, n (%)"
same,"TEAE Alanine aminotransferase increased, Grade 1–2",[4],"1 (17) patients, n (%)"
same,"TEAE Alanine aminotransferase increased, Grade ≥3",[4],"0 patients, n (%)"
same,"TEAE Anemia, Grade 1–2",[4],"1 (17) patients, n (%)"
same,"TEAE Anemia, Grade ≥3",[4],"4 (67) patients, n (%)"
same,"TEAE Any AE, Grade 1–2",[4],"1 (17) patients, n (%)"
same,"TEAE Any AE, Grade ≥3",[4],"5 (83) patients, n (%)"
same,"TEAE Arthralgia, Grade 1–2",[4],"1 (17) patients, n (%)"
same,"TEAE Arthralgia, Grade ≥3",[4],"0 patients, n (%)"
same,"TEAE Aspartate aminotransferase increased, Grade 1–2",[4],"1 (17) patients, n (%)"
same,"TEAE Aspartate aminotransferase increased, Grade ≥3",[4],"0 patients, n (%)"
